Laboratory results reported in the NIST ThermoML archive (doi:10.1016/j.tca.2015.10.014).
± gives the expanded uncertainty stated by the source.

Conditions: Crystal, Calculated from knudsen effusion weight loss

[Br-].[Br-].[Pb+2] [lead(II) bromide]
Conditions | vapor or sublimation pressure [kPa]
532.3 K | 7e-06 ± 2e-06
533 K | 8e-06 ± 2e-06
533.1 K | 8e-06 ± 2e-06
553.2 K | 3.6e-05 ± 9e-06
553.7 K | 2.6e-05 ± 6e-06
553.9 K | 2.7e-05 ± 7e-06
571.5 K | 6.1e-05 ± 1.5e-05
572.5 K | 7.8e-05 ± 1.9e-05
573.7 K | 7.5e-05 ± 1.8e-05
590.8 K | 0.000233 ± 5.7e-05
591.9 K | 0.000178 ± 4.3e-05
592.6 K | 0.0002 ± 4.9e-05
611.3 K | 0.000418 ± 0.0001
611.5 K | 0.000573 ± 0.00014
612.9 K | 0.000512 ± 0.00013
632.7 K | 0.000886 ± 0.00022
633.5 K | 0.001153 ± 0.00029
633.9 K | 0.001334 ± 0.00034
